Two compounds from patent US11882836B2, “1-amino-1-cyclopropanecarboxylic acid mixtures and uses thereof” (Valent BioSciences LLC, priority 2020, dated 2024) can be followed below.

Type in all cases: in vivo
One test deals with Malus (apple) rootstocks. Kind of test: Bud break and shoot development of Malus (apple) rootstocks after shoot application (Example 1). The following applies: for Average Number of Broken Buds Per Malus Plant at Harvest / Average Number of Broken Nodes Per Centimeter of Shoot at Harvest / Fresh Weight at Harvest / Fresh Weight per Bud at Harvest: 28 days; for Fresh Weight at Harvest / Fresh Weight per Bud at Harvest: Malus. From the text: To assess the ability of mixtures of the invention to promote and synchronize bud break, these mixtures were applied to field-grown Malus (apple) rootstocks and examined for bud break (initiation of growth) and subsequent shoot development. ACC, Dormex® (50% HC), 15-0-0 (Erger®) and 17-0-0 fertilizers (CAN17), and mixtures thereof were each applied individually or sequentially (co-applied) to the shoots of potted Malus rootstocks that were pruned to a height of 25 centimeters. Plants were evaluated for bud break at 28 days after treatment.
(§1) To determine if the mixtures provided unexpected results, the observed combined efficacy (“OCE”) was divided by the expected combined efficacy (“ECE”) wherein the expected ECE is calculated by the Abbott method: ECE=A+B−(AB/100),
(§2) wherein ECE is the expected combined efficacy and in which A and B are the speed of bud break relative to control, the number of buds broken per plant relative to control, shoot length relative to control or shoot weight relative to control given by the single active ingredients. If the ratio between the OCE of the mixture and the ECE of the mixture is greater than 1, then greater than expected interactions are present in the mixture. (Gisi, Synergistic Interaction of Fungicides in Mixtures, The American Phytopathological Society, 86:11, 1273-1279, 1996).

Test [1] relates to Prunus (stone fruit) plants. Put plainly: Bud break and shoot development of Prunus (stone fruit) plants in the greenhouse (Example 2). The note with it: for FW (grams): harvest, 28 days. The method, then:
as §1, §2
To assess the ability of mixtures of the invention to promote and synchronize bud break, these mixtures were applied to Prunus (stone fruit) plants in the greenhouse and examined for bud break (initiation of growth) and subsequent shoot development. ACC, Dormex® (50% HC), 15-0-0 (Erger®) and 17-0-0 fertilizers (CAN17), and mixtures thereof were each applied individually or sequentially (co-applied) to the shoots of Prunus plants. Plants were evaluated for bud break at 28 days after treatment.

In test [2] the test system is Prunus (stone fruit) plants. Kind of test: Bud break and shoot development of Prunus plants, ACC and CAN17 mixtures (Example 3). The note with it: for Mean FW: harvest. As for the experimental part: as §1, §2
To assess the ability of mixtures of the invention to promote and synchronize bud break, these mixtures were applied to Prunus (stone fruit) plants in the greenhouse and examined for bud break (initiation of growth) and subsequent shoot development. ACC, Dormex® (50% HC), and 17-0-0 fertilizers (CAN17), and mixtures thereof were each applied individually or sequentially (co-applied) to the shoots of Prunus plants. Plants were evaluated for bud break from 4-21 days after treatment.

Test [3] relates to Prunus (stone fruit) plants. Put plainly: Bud break and shoot development of Prunus plants, ACC and CAN15 mixtures (Example 4). The following applies: for Mean FW: harvest. The method, then:
as §1
If the ratio between the OCE of the mixture and the ECE of the mixture is greater than 1, then greater than expected interactions are present in the mixture.
To assess the ability of mixtures of the invention to promote and synchronize bud break, these mixtures were applied to Prunus (stone fruit) plants in the greenhouse and examined for bud break (initiation of growth) and subsequent shoot development. ACC, Dormex (50% HC), and 15-0-0 fertilizers (CAN15), and mixtures thereof were each applied individually or sequentially (co-applied) to the shoots of Prunus plants.

Regarding `NC1(C(=O)O)CC1` [ACC, 1-amino-1-cyclopropanecarboxylic acid], the “50% BB” value is listed as 14 days in the test with Malus (apple) rootstocks (ACC 300 ppm); 16 days in the test with Malus (apple) rootstocks (ACC 1000 ppm); 12 days in test [1] (ACC 300 ppm); 7 days in test [1] (ACC 1000 ppm); 11 days in test [2] (ACC 100 ppm); 10 days in test [2] (ACC 300 ppm). Also, the “50% BB” value in test [2] (ACC 600 ppm) was determined as 10 days; in test [3] (ACC 100 ppm), 10 days; in test [3] (ACC 300 ppm), 10 days; in test [3] (ACC 600 ppm), 9 days. The “Average Number of Broken Buds Per Malus Plant at Harvest” value came to 6.13 with Malus (apple) rootstocks (ACC 300 ppm) and 7.38 with Malus (apple) rootstocks (ACC 1000 ppm). Further, the “Average Number of Broken Nodes Per Centimeter of Shoot at Harvest” value with Malus (apple) rootstocks (ACC 300 ppm) turned out to be 0.25; with Malus (apple) rootstocks (ACC 1000 ppm), 0.30. Besides, the “Fresh Weight at Harvest” value with Malus (apple) rootstocks (ACC 300 ppm) stood at 4.34 grams; in the test with Malus (apple) rootstocks (ACC 1000 ppm) it was 3.05 grams. Also, the entries for the “Fresh Weight per Bud at Harvest” value with Malus (apple) rootstocks (ACC 300 ppm) and in the test with Malus (apple) rootstocks (ACC 1000 ppm) were 0.66 grams and 0.46 grams, respectively. Also, the “FW (grams)” value in test [1] (ACC 300 ppm) is given as 3.95 grams; in test [1] (ACC 1000 ppm) it was 3.81 grams. Further, the “0-100% BB” value in test [2] (ACC 100 ppm) turned out to be 10 days; in test [2] (ACC 300 ppm), 13 days; in test [2] (ACC 600 ppm), 12 days; in test [3] (ACC 100 ppm), 6 days; in test [3] (ACC 300 ppm), 5 days; in test [3] (ACC 600 ppm), 7 days. In addition, the “Mean FW” value turned out to be 0.52 g in test [2] (ACC 100 ppm); 1.84 g in test [2] (ACC 300 ppm); 1.28 g in test [2] (ACC 600 ppm); 1.01 g in test [3] (ACC 100 ppm); 1.46 g in test [3] (ACC 300 ppm); 2.57 g in test [3] (ACC 600 ppm).

Consider `N#CN` [HC, hydrogen cyanamide, reference compound], for which, in the test with Malus (apple) rootstocks (HC 1% (v/v)), the “50% BB” value worked out at 12 days, the “Average Number of Broken Buds Per Malus Plant at Harvest” value was 8.13, the “Average Number of Broken Nodes Per Centimeter of Shoot at Harvest” value turned out to be 0.325 and the “Fresh Weight at Harvest” value stood at 7.99 grams. Moreover, in the test with Malus (apple) rootstocks (HC 1% (v/v)), the “Fresh Weight per Bud at Harvest” value is reported as 0.98 grams. Also, in test [1] (HC 1% (v/v)), the “50% BB” value is reported as 7 days and the “FW (grams)” value is recorded as 4.76 grams. Moreover, in test [2] (HC 1% (v/v)), the “0-100% BB” value was 6 days, the “50% BB” value is reported as 9 days and the “Mean FW” value is 1.64 g. Moreover, in test [3] (HC 1% (v/v)), the “0-100% BB” value came out at 6 days, the “50% BB” value is recorded as 9 days and the “Mean FW” value came out at 3.15 g.
